Assays:
mouse tumor = assay: Mouse tumor injected with doxorubicin and control; fluorescent imaging of the apoptosis signal; assay type: in vivo; settings: FIG. 14; excitation 640 nm, emission 720 nm of the dye; versus control injection
Method: FIG. 14 depicts the use of various indicator dyes according to the method, to monitor spatially restricted delivery of compounds and resulting localized effects on regions of a tumor. A mouse tumor was injected with 1. doxorubicin; and 2. a control. Panel A illustrates excitation at 640 nm and emission at 800 nm of the dye. Panel B illustrates the doxorubicin signal (3.) observed after excitation at 500 nm and emission at 600 nm of doxorubicin. Panel C illustrates an apoptosis signal (4.) observed after excitation at 640 nm and emission at 720 nm of the dye.

lymphoma tumor = assay: Doxorubicin delivered to a lymphoma tumor with a needle array; excised tumor slices imaged by fluorescence and brightfield microscopy; assay type: in vivo
Excerpt: Doxorubicin was delivered to a lymphoma tumor using a needle array of the method. The tumor was then excised and sectioned. […] Regions of doxorubicin fluorescence and cell death are localized to a zone within the tumor slice, reflecting spatially constrained doxorubicin delivery.

[1] = test system: Intracranial medulloblastoma model (conditional Patchedl null) mice; assay: Survival of intracranial medulloblastoma model mice; assay type: in vivo, mouse; settings: FIG. 13; 20 mg/kg daily; monitored for 50 days; versus vehicle only
Method: The results of the in vivo experiment depicted in FIG. 12 predicted that Shh antagonists would have a positive effect on a mouse model of cancer. Intracranial medulloblastoma model (conditional Patchedl null) mice used in this experiment develop medulloblastoma with an early onset and 100% penetrance. Accordingly, mice were injected daily with 20 mg/kg of either A) vehicle plus IPI-926 (n=12); or B) vehicle only (n=11). The mice were monitored for 50 days for survival, and the results depicted in FIG. 13.

Row | Compound | apoptosis signal (mouse tumor) | cell death in tumor slice, relative to doxorubicin fluorescence (lymphoma tumor; FIG. 8, one tumor slice, needle array delivery) | cell death across tumor depths (lymphoma tumor; FIG. 9, three cross-sectional slices from different depths) | survival [1]
1 | COc1cccc2c1C(=O)c1c(O)c3c(c(O)c1C2=O)C[C@@](O)(C(=O)CO)C[C@@H]3O[C@H]1C[C@H](N)[C@H](O)[C@H](C)O1 [Doxorubicin] | apoptosis overlaps with the region that received doxorubicin | doxorubicin fluorescence overlaps with the region of dead cells | Cell death was observed in a localized area across the three tumor depths | –
2 | CC1=C2C[C@H]3[C@@H](CC[C@@H]4C[C@H](NS(C)(=O)=O)CC[C@@]43C)[C@@H]2CC[C@@]2(C1)O[C@@H]1C[C@H](C)CN[C@H]1[C@H]2C [IPI-926] | – | – | – | significantly increased survival
